ChEMBL document CHEMBL1128080, “Structural Factors affecting the kinetics of O,N-acyl transfer in potential O-peptide prodrugs” (Bioorg Med Chem Lett, 1995)

experiment: Half-life for the conversion of compound to the corresponding N-peptide under pseudo physiological conditions (0.04 M phosphate, pH 7.4 and 37 degree C); assay type: ADME; details: phosphate buffer

Structure (SMILES) | half-life [h]
CCC(NC(=O)C(N)C(OC(=O)C(NC(=O)OCc1ccccc1)C(C)C)C(C)C)C(=O)NCCc1ccc(OC)c(OC)c1 (stereo not drawn) | 0.0667
CCC(NC(=O)C(NC)C(OC(=O)C(NC(=O)OCc1ccccc1)C(C)C)C(C)C)C(=O)NCCc1ccc(OC)c(OC)c1 (stereo not drawn) | 1.58
CNC1C(=O)NCCCCN(C)C(C(C)C)C(=O)OC1C(C)C (stereo not drawn) | 6.17
